Like-named read-outs stand apart in the source and are kept apart here.
Experiments:
[1] = system: 60 cancer cell lines (NCI 60 cancer cell line series); conditions: cited from earlier work
[2] = system: 60 cancer cell lines (NCI 60 cancer cell line series); assay: NCI-DTP in vitro cancer screen, sulforhodamine B (SRB) growth inhibition, 48 hour exposure; type: cell-based, human
In short: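 NCI-DTP panel of 60 cancer cell lines plated day 0 at line-specific densities, exposed from day 1 to compound at 5 ten-fold-spaced doses in duplicate wells. After 48 h, cell mass stained with sulforhodamine B; −log GI50 derived from dose–response curves, averaged, and classed Low, Medium or High sensitivity.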

In the case of `COc1cccc2c1C(=O)c1c(O)c3c(c(O)c1C2=O)C[C@@](O)(C(=O)CO)C[C@@H]3OC1CC(N)CC(C)O1.Cl` (some centres unmarked) [Deoxydoxorubicin], the “−Log (GI50)” value ([1]; CNS SF-268 CL12014) is listed as 7.3, the “−Log (GI50)” value ([1]; CNS U251(I) CL12009) is listed as 7.6 and the “−Log (GI50)” value ([1]; Colon HT29(I) CL4001) is listed as 7.5. The “−Log (GI50)” value ([1]; Melanoma UACC-62 CL10020) was 7.6, the “−Log (GI50)” value ([1]; NSCLC HOP-92 CL1029) was 7.4 and the “−Log (GI50)” value ([1]; Ovarian SK-OV-3 CL6011) was 7.3. For the same compound, the “−Log (GI50)” value ([1]; Prostate DU-145 CL11003) was 7.6, the “classification of cell line as Low(1), Medium(2), High(3) sensitivity to compound” value (from here on “classification of cell line”) ([2]; Breast BT-549 CL5013) was 2 and the “classification of cell line” value ([2]; Breast MCF7/ADRr CL5002) was 1. The “classification of cell line” value ([2]; Breast MDA-N CL5012) was 2, the “classification of cell line” value ([2]; CNS SF-268 CL12014) was 2 and the “classification of cell line” value ([2]; CNS SF-295 CL12015) was 2. For the same compound, the “classification of cell line” value ([2]; CNS SF-539 CL12016) was 2, the “classification of cell line” value ([2]; CNS SNB-19 CL12002) was 2 and the “classification of cell line” value ([2]; CNS SNB-75(I) CL12005) was 2. For the same compound, the “classification of cell line” value ([2]; CNS U251(I) CL12009) was 2, the “classification of cell line” value ([2]; Colon COLO-250 CL4010) was 2 and the “classification of cell line” value ([2]; Colon HCT-15 CL4015) was 1. The “classification of cell line” value ([2]; Colon HT29(I) CL4001) was 2, the “classification of cell line” value ([2]; Colon KM12 CL4017) was 2 and the “classification of cell line” value ([2]; Leukemia CCRF-CEM(I) CL7003) was 2. For the same compound, the “classification of cell line” value ([2]; Leukemia K562(I) CL7005) was 2, the “classification of cell line” value ([2]; Leukemia RPMI-8226(I) CL7010) was 2 and the “classification of cell line” value ([2]; Leukemia SR CL7019) was 3. The “classification of cell line” value ([2]; Melanoma LOX IMVI CL10001) was 2, the “classification of cell line” value ([2]; Melanoma M14 CL10014) was 2 and the “classification of cell line” value ([2]; Melanoma MALME-3M CL10002) was 2. For the same compound, the “classification of cell line” value ([2]; Melanoma SK-MEL-28 CL10008) was 1, the “sensitivity classification Low(1)/Medium(2)/High(3)” value ([2]; NSCLC NCI-H23(I) CL1001) was 2 and the “sensitivity classification Low(1)/Medium(2)/High(3)” value ([2]; NSCLC NCI-H522 CL1003) was 2. The “sensitivity classification Low(1)/Medium(2)/High(3)” value ([2]; Ovarian IGROV1 CL6010) was 2, the “sensitivity classification Low(1)/Medium(2)/High(3)” value ([2]; Ovarian OVCAR-3 CL6001) was 2 and the “sensitivity classification Low(1)/Medium(2)/High(3)” value ([2]; Ovarian OVCAR-4 CL6002) was 2. The “sensitivity classification Low(1)/Medium(2)/High(3)” value ([2]; Ovarian OVCAR-8 CL6005) was 2, the “sensitivity classification Low(1)/Medium(2)/High(3)” value ([2]; Ovarian SK-OV-3 CL6011) was 2 and the “sensitivity classification Low(1)/Medium(2)/High(3)” value ([2]; Prostate DU-145 CL11003) was 2. The “sensitivity classification Low(1)/Medium(2)/High(3)” value ([2]; Prostate PC-3(I) CL11001) was 2, the “sensitivity classification Low(1)/Medium(2)/High(3)” value ([2]; Renal A498 CL9013) was 2 and the “sensitivity classification Low(1)/Medium(2)/High(3)” value ([2]; Renal SN12C CL9008) was 2. The “sensitivity classification Low(1)/Medium(2)/High(3)” value ([2]; Renal TK10 CL9024) was 1 and the “sensitivity classification Low(1)/Medium(2)/High(3)” value ([2]; Renal UO-31 CL9004) was 1.

From patent publication US20030129629A1, “Methods and compositions for the identification, assessment, prevention, and therapy of human cancers” (Millennium Pharmaceuticals, Inc., priority 2000, published 2003)
